Our source for the TGI values is PubChem BioAssay (NCI).

Test systems include CCRF-CEM leukemia; TK-10 renal; HCC-2998 colon; CAKI-1 renal; OVCAR-8 ovarian; SK-MEL-2 melanoma; HCT-116 colon; LOX IMVI melanoma; K-562 leukemia; OVCAR-4 ovarian; OVCAR-3 ovarian; M14 melanoma; MALME-3M melanoma; A498 renal; NCI-H23 lung; COLO 205 colon; NCI-H522 lung; SF-268 CNS; ACHN renal; A549 NSCLC.
Experiment in all cases: NCI tumour cell line growth inhibition, 48 h

The structures appear in SMILES notation.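 Growth conditions: 96-well plates. Treatment: test compound, 48 hours, 5 concentrations. Analysis: linear interpolation between bracketing concentrations; unreached endpoints set to highest concentration. Definition used: TGI = concentration required for complete inhibition of growth.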 A value given as a limit tells only on which side of the number the result lay.

Consider `COC(=O)[C@@H]1C=C[C@H](NC(C)=O)C1`, for which the TGI in the test on CCRF-CEM leukemia, in the test with TK-10 renal, in the test on HCC-2998 colon, in the test on CAKI-1 renal, in the test with OVCAR-8 ovarian and in the test on SK-MEL-2 melanoma was more than 100 µM each time. Besides, the TGI with HCT-116 colon, in the test on LOX IMVI melanoma, in the test on K-562 leukemia, in the test with OVCAR-4 ovarian, in the test with OVCAR-3 ovarian and in the test on M14 melanoma was more than 100 µM each time. Besides, the TGI in the test on MALME-3M melanoma, with A498 renal, with NCI-H23 lung and in the test with COLO 205 colon was more than 100 µM each time.
For the compound `Cn1c(=O)n(CC2CS2)c2ccccc21` (centres undefined), the TGI in the test with CCRF-CEM leukemia, in the test with TK-10 renal, in the test with NCI-H522 lung, in the test with HCC-2998 colon, in the test with CAKI-1 renal and in the test with SF-268 CNS was more than 100 µM throughout. Besides, the TGI with SK-MEL-2 melanoma, with HCT-116 colon, in the test with LOX IMVI melanoma, in the test on K-562 leukemia, in the test on ACHN renal and in the test with OVCAR-4 ovarian was more than 100 µM throughout. Moreover, the TGI with OVCAR-3 ovarian, in the test on M14 melanoma, in the test with MALME-3M melanoma, with A549 NSCLC and in the test on COLO 205 colon was more than 100 µM in each case.
For the compound `CCN(CC)/[N+]([O-])=N/O`, the TGI in the test on CCRF-CEM leukemia, in the test on TK-10 renal, in the test on NCI-H522 lung, with HCC-2998 colon, in the test with CAKI-1 renal and in the test with SF-268 CNS was more than 100 µM in each case. Further, the TGI in the test with OVCAR-8 ovarian, with SK-MEL-2 melanoma, in the test on HCT-116 colon, in the test on LOX IMVI melanoma, in the test on K-562 leukemia and in the test on ACHN renal was more than 100 µM throughout. Also, the TGI in the test with OVCAR-3 ovarian, with M14 melanoma, in the test on A498 renal, with A549 NSCLC and in the test with NCI-H23 lung was more than 100 µM each time.
Regarding `CCN(CCCl)c1cccc(NC(=O)c2ccc(C(=O)Nc3cccc(CN(C)C)c3)cc2)c1`, the TGI worked out at 1.22 µM with CCRF-CEM leukemia; 0.779 µM in the test on TK-10 renal; 0.0342 µM with NCI-H522 lung; 0.368 µM in the test on HCC-2998 colon; 1.58 µM in the test on CAKI-1 renal; 4.87 µM in the test with SF-268 CNS. Moreover, the TGI was 1.35 µM with OVCAR-8 ovarian; 0.0856 µM with SK-MEL-2 melanoma; 12.4 µM with HCT-116 colon; 0.177 µM with LOX IMVI melanoma; 10.9 µM with K-562 leukemia; 0.624 µM with ACHN renal. Also, the TGI in the test with OVCAR-4 ovarian amounted to 0.611 µM; with M14 melanoma, 0.86 µM; in the test with MALME-3M melanoma it was 0.166 µM; with A498 renal, 0.502 µM; in the test with A549 NSCLC, 12.2 µM; in the test with NCI-H23 lung, 1.15 µM. In the test on COLO 205 colon, this compound returned a TGI of 0.24 µM.
